In US7384949B2, “Thieno(3,2-d)pyrimidines and furano(3,2-d)pyrimidines and their use as purinergic receptor antagonists” (Vernalis Research Limited, priority 2001, dated 2008):

Row | Compound | melting point
1 | CN(C)c1nc(-c2nccn2COCC[Si](C)(C)C)c2sccc2n1 | 131 to 132 °C
2 | CCc1nc(-c2nncn2COCC[Si](C)(C)C)c2sccc2n1 | < 100 °C
3 | C[Si](C)(C)CCOCn1cc(-c2nc(Cl)nc3ccsc23)cn1 | 108 to 109 °C
4 | CN(C)c1nc(-c2cnn(COCC[Si](C)(C)C)c2)c2sccc2n1 | 60 to 61 °C
5 | Clc1nc(-c2ccco2)c2sccc2n1 [Example 3, 2-chloro-4-(2-furyl)thieno[3,2-d]pyrimidine] | 146.9 to 147.6 °C
6 | OC[C@H]1CCCN1c1nc(-c2cccs2)c2sccc2n1 [Example 4, (2R)-2-(2-hydroxymethylpyrrolidin-1-yl)-4-(2-thienyl)thieno[3,2-d]pyrimidine] | 128.5 to 128.9 °C
7 | FC(F)(F)c1nc(-c2ccco2)c2sccc2n1 [Example 11, 4-(2-furyl)-2-trifluoromethylthieno[3,2-d]pyrimidine] | 147.6 to 148.8 °C
8 | Cc1csc2c(-c3ccco3)nc(Cl)nc12 [Example 12, 2-chloro-4-(2-furyl)-7-methylthieno[3,2-d]pyrimidine] | 164.4 to 164.9 °C
9 | Cc1csc2c(-c3ccco3)nc(NCCO)nc12 [Example 16, 4-(2-furyl)-N-(2-hydroxyethyl)-7-methylthieno[3,2-d]pyrimidine-2-amine] | 149.9 to 150.6 °C
10 | Clc1nc(-c2cc3ccccc3s2)c2sccc2n1 [Example 17, 4-(2-benzothiophenyl)-2-chlorothieno[3,2-d]pyrimidine] | 231 to 231.6 °C
11 | OCCNc1nc(-c2cc3ccccc3s2)c2sccc2n1 [Example 20, 4-(2-benzothiophenyl)-N-(2-hydroxyethyl)thieno[3,2-d]pyrimidine-2-amine] | 173.4 to 174.4 °C
12 | CN(C)c1nc(-c2ccco2)c2scc(Br)c2n1 [Example 22, 7-bromo-N,N-dimethyl-4-(2-furyl)thieno[3,2-d]pyrimidine-2-amine] | 118.7 to 119.5 °C
13 | Clc1nc(-c2ccccn2)c2sccc2n1 [Example 24, 2-chloro-4-(2-pyridyl)thieno[3,2-d]pyrimidine] | 209.2 to 209.5 °C
14 | Clc1nc(-c2cnccn2)c2sccc2n1 [Example 30, 2-chloro-4-(2-pyrazinyl)thieno[3,2-d]pyrimidine] | 183.2 to 183.8 °C
15 | OCCNc1nc(-c2cnccn2)c2sccc2n1 [Example 34, N-(2-hydroxyethyl)-4-(2-pyrazinyl)thieno[3,2-d]pyrimidine-2-amine] | 191.5 to 192.4 °C
16 | CCSc1nc(-c2ccco2)c2sccc2n1 [Example 37, 2-ethylthio-4-(2-furyl)thieno[3,2-d]pyrimidine] | 207 to 208 °C
17 | OC[C@H]1CCCN1c1nc(-c2ccco2)c2sccc2n1 [Example 38, (2R)-4-(2-furyl)-2-(2-hydroxymethylpyrrolidin-1-yl)thieno[3,2-d]pyrimidine] | 109 to 110 °C
18 | CN(C)c1nc(-c2ccco2)c2scc([N+](=O)[O-])c2n1 [Example 44, N,N-dimethyl-4-(2-furyl)-7-nitrothieno[3,2-d]pyrimidine-2-amine] | 182.8 to 183.8 °C
19 | CN(C)c1nc(-c2ccco2)c2scc(N)c2n1 [Example 51, 7-amino-N,N-dimethyl-4-(2-furyl)thieno[3,2-d]pyrimidine-2-amine] | 145.8 to 146.5 °C
20 | CN(C)c1nc(-c2ccco2)c2scc(NC(=O)Nc3ccccc3)c2n1 [Example 55, N-(2-dimethylamino-4-(2-furyl)thieno[3,2-d]pyrimidine-7-yl)-N′-phenylurea] | 244.4 to 244.9 °C
21 | CC(=O)Nc1csc2c(-c3ccco3)nc(N(C)C)nc12 [Example 56, N-(2-dimethylamino-4-(2-furyl)thieno[3,2-d]pyrimidine-7-yl)acetamide] | 210.9 to 211.3 °C
22 | CN(C)c1nc(-c2ccco2)c2scc(NC(=O)c3ccccc3)c2n1 [Example 57, N-(2-dimethylamino-4-(2-furyl)thieno[3,2-d]pyrimidine-7-yl)benzamide] | 192.2 to 192.8 °C
23 | CS(=O)(=O)Nc1csc2c(-c3ccco3)nc(Cl)nc12 [Example 59, N-(2-chloro-4-(2-furyl)thieno[3,2-d]pyrimidine-7-yl)methanesulphonamide] | 211.9 °C
24 | CC(=O)CC(=O)N(C)c1nc(-c2ccco2)c2sccc2n1 [Example 60, N-(4-(2-furyl)thieno[3,2-d]pyrimidine-2-yl)-N-methyl-3-oxobutanamide] | 108.3 to 108.6 °C
25 | OC[C@H]1CCCN1c1nc(-c2ccco2)c2scc(Br)c2n1 [Example 72, (2R)-7-bromo-4-(2-furyl)-2-(2-hydroxymethylpyrrolidin-1-yl)thieno[3,2-d]pyrimidine] | 75.4 to 76.3 °C
26 | COc1ccc(CNc2nc(-c3ccco3)c3sccc3n2)cc1OC [Example 78, N-(3,4-dimethoxybenzyl)-4-(2-furyl)thieno[3,2-d]pyrimidine-2-amine] | 155 to 156 °C

Results, then the molecule that gave them:

Row | melting point | Compound
27 | 193.9 to 195 °C | CC(=O)Nc1nc(-c2ccco2)c2sccc2n1 [Example 101, N-(4-(2-furyl)thieno[3,2-d]pyrimidin-2-yl)acetamide]
28 | 243 to 244 °C | Cc1cnc(-c2nc(Cl)nc3ccsc23)s1 [Example 102, 2-chloro-4-(5-methyl-2-thiazolyl)thieno[3,2-d]pyrimidine]
29 | 240 to 241 °C | Cc1nc(-c2nc(Cl)nc3ccsc23)sc1C [Example 103, 2-chloro-4-(4,5-dimethyl-2-thiazolyl)thieno[3,2-d]pyrimidine]
30 | 170 to 170.5 °C | CCc1nc(-c2ncc(-c3ccccc3)o2)c2sccc2n1 [Example 106, 2-ethyl-4-(5-phenyl-2-oxazolyl)thieno[3,2-d]pyrimidine]
31 | 178.7 to 179.5 °C | COc1ccc(CNc2nc(-c3nccs3)c3sccc3n2)cc1OC [Example 108, N-(3,4-dimethoxybenzyl)-4-(2-thiazolyl)thieno[3,2-d]pyrimidine-2-amine]
32 | 221 to 222 °C | Cc1ccc(-c2nc(Cl)nc3ccsc23)nc1 [Example 109, 2-chloro-4-(5-methyl-2-pyridyl)thieno[3,2-d]pyrimidine]
33 | 128 to 129 °C | C=CCNc1nc(-c2nccs2)c2sccc2n1 [Example 112, N-allyl-4-(2-thiazolyl)thieno[3,2-d]pyrimidine-2-amine]
34 | 242.6 to 243.9 °C | CC(=O)Nc1nc(-c2nccs2)c2sccc2n1 [Example 116, N-(4-(2-thiazolyl)thieno[3,2-d]pyrimidin-2-yl)acetamide]
35 | 149 °C | c1coc(-c2nc(Cc3cccs3)nc3ccsc23)c1 [Example 117, 4-(2-furyl)-2-(2-thienylmethyl)thieno[3,2-d]pyrimidine]
36 | 179 °C | CCc1nc(-c2nc(CC)nc3ccsc23)c2sccc2n1 [Example 119, 2-ethyl-4-(2-ethylthieno[3,2-d]pyrimidin-4-yl)thieno[3,2-d]pyrimidine]
37 | 131 °C | CCc1nc(-c2nc3ccccc3s2)c2sccc2n1 [Example 122, 4-(2-benzothiazolyl)-2-ethylthieno[3,2-d]pyrimidine]
38 | 221.9 °C | c1csc(-c2nc(-c3nccs3)c3sccc3n2)c1 [Example 153, 4-(2-thiazolyl)-2-(2-thienyl)thieno[3,2-d]pyrimidine]
39 | 300 °C (dec.) | NC(=O)c1nc(-c2ccco2)c2sccc2n1 [Example 155, 4-(2-furyl)thieno[3,2-d]pyrimidine-2-carboxamide]
40 | 117.7 to 118.2 °C | Clc1nc(-c2ccsc2)c2sccc2n1 [Example 156, 2-chloro-4-(3-thienyl)thieno[3,2-d]pyrimidine]
41 | 119 to 119.4 °C | CN(C)c1nc(-c2ccsc2)c2sccc2n1 [Example 157, N,N-dimethyl-4-(3-thienyl)thieno[3,2-d]pyrimidine-2-amine]
42 | 146.5 to 147.2 °C | Clc1nc(-c2ccccc2)c2sccc2n1 [Example 158, 2-chloro-4-phenylthieno[3,2-d]pyrimidine]
43 | 112.9 to 114.1 °C | CN(C)c1nc(-c2ccccc2)c2sccc2n1 [Example 159, N,N-dimethyl-4-phenylthieno[3,2-d]pyrimidine-2-amine]
44 | 129.3 to 129.9 °C | Clc1nc(-c2ccoc2)c2sccc2n1 [Example 160, 2-chloro-4-(3-furyl)thieno[3,2-d]pyrimidine]
45 | 204 to 204.9 °C | O=[N+]([O-])c1cc2nc(Cl)nc(-c3ccco3)c2s1 [Example 162, 2-chloro-4-(2-furyl)-6-nitrothieno[3,2-d]pyrimidine]
46 | 209 to 210 °C | CCOC(=O)Cn1ccnc1-c1nc(N(C)C)nc2ccsc12 [Example 177, N,N-dimethyl-4-((1-ethoxycarbonylmethyl)-1H-imidazol-2-yl)thieno[3,2-d]pyrimidine-2-amine]
47 | 162.2 to 164.9 °C | CN(C)c1nc(-c2nccn2CCO)c2sccc2n1 [Example 178, N,N-dimethyl-4-(1-(2-hydroxyethyl)-1H-imidazol-2-yl)thieno[3,2-d]pyrimidine-2-amine]
48 | 69 to 70 °C | CCc1nc(-c2nccn2COC)c2sccc2n1 [Example 179, 2-ethyl-4-(1-methoxymethyl-1H-imidazol-2-yl)thieno[3,2-d]pyrimidine]
49 | 141 to 142 °C | Cn1nccc1-c1nc(Cl)nc2ccsc12 [Example 182, 2-chloro-4-(1-methyl-1H-pyrazol-5-yl)thieno[3,2-d]pyrimidine]
50 | 126.5 to 127 °C | CN(C)c1nc(-c2ccnn2C)c2sccc2n1 [Example 184, N,N-dimethyl-4-(1-methyl-1H-pyrazol-5-yl)thieno[3,2-d]pyrimidine-2-amine]
51 | 175.4 to 175.9 °C | CN(C)c1nc(-c2cnn(C)c2)c2sccc2n1 [Example 186, N,N-dimethyl-4-(1-methyl-1H-pyrazol-4-yl)thieno[3,2-d]pyrimidine-2-amine]
52 | 110.2 to 111.4 °C | CCc1nc(-c2nncn2C)c2sccc2n1 [Example 187, 2-ethyl-4-(4-methyl-4H-1,2,4-triazol-3-yl)thieno[3,2-d]pyrimidine]
53 | 104.7 to 104.8 °C | CCc1nc(-c2ccco2)c2sc(C)cc2n1 [Example 188, 2-ethyl-4-(2-furyl)-6-methylthieno[3,2-d]pyrimidine]
